Test results reported in ChEMBL document CHEMBL3734731 (Medchemcomm, 2015).
Numbered stars: 1 amine (or outer) side, 2 acyl side, 3 side chain; on linkers, the order of the positions; unused ones are H or OH. Square brackets hold non-standard residues; d marks the D form. Peptide text beside a SMILES is read from it. NMeF = CN[C@@H](Cc1ccccc1)C(=O)O; Aad = N[C@@H](CCCC(=O)O)C(=O)O; Oxalyl = O=C(C(=O)[*:2])[*:1]

Legend:
Neuromedin-K receptor [1] = biological target: T1, Neuromedin-K receptor (Homo sapiens, UniProt P29371); assay: Displacement of ([125I]His3-MePhe7)-NKB from NK3 receptor (unknown origin) expressed in CHO cells by scintillation counter; assay type: cell-based
T1 sequence (P29371 whole entry): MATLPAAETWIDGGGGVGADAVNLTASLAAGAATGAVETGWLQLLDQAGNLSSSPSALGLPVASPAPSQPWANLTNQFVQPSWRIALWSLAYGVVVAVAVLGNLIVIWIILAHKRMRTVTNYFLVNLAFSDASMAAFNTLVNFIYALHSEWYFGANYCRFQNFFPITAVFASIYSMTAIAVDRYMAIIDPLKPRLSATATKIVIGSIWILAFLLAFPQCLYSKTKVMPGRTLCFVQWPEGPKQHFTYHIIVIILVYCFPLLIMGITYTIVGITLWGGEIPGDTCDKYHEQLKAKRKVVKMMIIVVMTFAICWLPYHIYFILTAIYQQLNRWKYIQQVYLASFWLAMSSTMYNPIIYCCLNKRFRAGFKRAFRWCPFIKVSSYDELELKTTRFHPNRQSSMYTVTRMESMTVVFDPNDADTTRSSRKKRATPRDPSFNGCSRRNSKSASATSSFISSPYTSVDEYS

Neuromedin-K receptor [2] = biological target: T1, Neuromedin-K receptor; assay: Agonist activity at human NK3 receptor expressed in CHO cells assessed as calcium influx relative to 100 nM senktide; assay type: functional, cell-based
Substance-P receptor = Substance-P receptor (Homo sapiens, UniProt P25103); assay: Displacement of [125I]-BH-SP from NK1 receptor (unknown origin) expressed in CHO cells by scintillation counter; assay type: cell-based
Substance-K receptor = biological target: T2, Substance-K receptor (Homo sapiens, UniProt P21452); assay: Displacement of [125I]-NKA from NK2 receptor (unknown origin) expressed in CHO cells by scintillation counter; assay type: cell-based
T2 sequence (P21452 whole entry): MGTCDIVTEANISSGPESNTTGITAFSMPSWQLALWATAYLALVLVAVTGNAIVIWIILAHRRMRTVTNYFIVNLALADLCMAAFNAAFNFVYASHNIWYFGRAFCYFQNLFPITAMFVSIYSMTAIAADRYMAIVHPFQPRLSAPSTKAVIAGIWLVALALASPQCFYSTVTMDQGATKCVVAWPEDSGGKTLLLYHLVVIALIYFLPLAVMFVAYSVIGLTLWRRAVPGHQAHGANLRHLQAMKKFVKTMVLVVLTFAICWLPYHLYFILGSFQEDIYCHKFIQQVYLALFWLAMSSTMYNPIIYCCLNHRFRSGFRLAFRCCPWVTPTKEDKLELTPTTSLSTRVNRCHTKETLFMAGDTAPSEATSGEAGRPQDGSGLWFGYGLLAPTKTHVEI

[3] = biological target: T3, Neuromedin-K receptor (Homo sapiens) (UniProt P29371); assay: Potency index, ratio of EC50 for […] to EC50 for test compound for agonist activity at human NK3 receptor
T3 sequence (whole entry): T1 sequence (P29371 whole entry)

Neuromedin-K receptor [4] = biological target: T4, Neuromedin-K receptor (Rattus norvegicus, UniProt P16177); assay: Agonist activity at rat NK3 receptor expressed in CHO cells assessed as calcium influx relative to 100 nM senktide; assay type: functional, cell-based
T4 sequence (P16177 whole entry): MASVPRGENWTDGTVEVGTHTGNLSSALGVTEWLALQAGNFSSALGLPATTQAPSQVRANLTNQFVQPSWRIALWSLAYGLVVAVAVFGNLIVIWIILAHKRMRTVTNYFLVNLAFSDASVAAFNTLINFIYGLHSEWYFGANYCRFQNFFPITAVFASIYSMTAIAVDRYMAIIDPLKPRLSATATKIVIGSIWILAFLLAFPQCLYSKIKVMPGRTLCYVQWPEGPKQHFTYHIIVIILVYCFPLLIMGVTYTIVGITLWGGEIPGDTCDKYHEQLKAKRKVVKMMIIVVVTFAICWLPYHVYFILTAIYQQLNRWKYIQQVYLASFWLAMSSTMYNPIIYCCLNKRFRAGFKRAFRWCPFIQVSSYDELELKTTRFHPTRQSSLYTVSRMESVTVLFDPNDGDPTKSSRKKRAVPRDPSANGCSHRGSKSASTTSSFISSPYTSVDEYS

[5] = Agonist activity at goat NK3 receptor expressed in CHO cells assessed as calcium influx relative to 100 nM senktide; assay type: cell-based; conditions: Capra hircus
[6] = Agonist activity at cattle NK3 receptor expressed in CHO cells assessed as calcium influx relative to 100 nM senktide; assay type: cell-based
Serum [7] = assay: Metabolic stability in rat serum by HPLC analysis; assay type: ADME
[8] = Metabolic stability in goat serum by HPLC analysis; assay type: ADME, Capra hircus
Serum [9] = assay: Metabolic stability in cattle serum by HPLC analysis; assay type: ADME, Bos taurus
[10] = Induction of periodic burst of multiple-unit activity volleys in OVX goat assessed as time duration of effect at 200 nmol, iv; assay type: functional, Capra hircus
[11] = Induction of periodic burst of multiple-unit activity volleys in OVX goat assessed as number of ligand-induced multiple-unit activity volleys at 200 nmol, iv; assay type: functional, Capra hircus
Neprilysin (NEP 24.11) = Neprilysin (NEP 24.11) (Homo sapiens, UniProt P08473); assay: Stability of compound assessed as NEP 24.11 (unknown origin)-mediated drug degradation after 24 hrs by HPLC analysis; assay type: ADME; conditions: NEP 24.11 (neprilysin) enzyme
Chain of Neprilysin (NEP 24.11) (P08473 whole entry): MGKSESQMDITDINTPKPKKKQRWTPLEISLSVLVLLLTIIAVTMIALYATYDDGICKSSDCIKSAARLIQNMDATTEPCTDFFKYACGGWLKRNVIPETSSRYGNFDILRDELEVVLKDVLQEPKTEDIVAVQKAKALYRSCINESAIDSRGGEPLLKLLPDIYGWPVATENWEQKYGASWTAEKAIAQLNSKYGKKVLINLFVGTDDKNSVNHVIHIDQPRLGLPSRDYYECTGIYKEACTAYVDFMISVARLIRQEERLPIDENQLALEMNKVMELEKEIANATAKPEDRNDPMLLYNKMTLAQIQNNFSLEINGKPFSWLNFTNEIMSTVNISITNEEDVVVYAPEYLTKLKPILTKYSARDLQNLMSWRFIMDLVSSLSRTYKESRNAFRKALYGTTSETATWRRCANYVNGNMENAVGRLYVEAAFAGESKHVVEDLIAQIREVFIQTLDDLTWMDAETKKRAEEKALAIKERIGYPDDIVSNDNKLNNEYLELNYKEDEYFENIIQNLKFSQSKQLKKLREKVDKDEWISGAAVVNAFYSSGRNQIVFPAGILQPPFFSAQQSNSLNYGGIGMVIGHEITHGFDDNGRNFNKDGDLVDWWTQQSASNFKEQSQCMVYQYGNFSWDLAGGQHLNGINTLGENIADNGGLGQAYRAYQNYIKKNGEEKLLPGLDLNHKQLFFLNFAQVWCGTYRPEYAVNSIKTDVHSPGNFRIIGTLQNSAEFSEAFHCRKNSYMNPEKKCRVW

Chain of Substance-P receptor (P25103 whole entry): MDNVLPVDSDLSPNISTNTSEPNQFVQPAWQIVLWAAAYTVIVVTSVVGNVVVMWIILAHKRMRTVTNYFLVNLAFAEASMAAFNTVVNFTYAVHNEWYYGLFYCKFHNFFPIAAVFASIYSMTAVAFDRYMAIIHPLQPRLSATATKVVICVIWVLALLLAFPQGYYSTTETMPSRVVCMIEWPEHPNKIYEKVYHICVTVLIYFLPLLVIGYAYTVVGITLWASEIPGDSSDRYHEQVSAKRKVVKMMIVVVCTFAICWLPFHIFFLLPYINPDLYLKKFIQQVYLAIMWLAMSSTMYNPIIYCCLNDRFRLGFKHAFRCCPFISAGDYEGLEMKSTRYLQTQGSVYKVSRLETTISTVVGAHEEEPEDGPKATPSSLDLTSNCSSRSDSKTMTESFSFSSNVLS

| IC50 (Neuromedin-K receptor [1]) [nM] | EC50 (Neuromedin-K receptor [2]) [nM] | IC50 (Substance-P receptor) [nM] | IC50 (Substance-K receptor) [nM] | Ratio EC50 [3] | EC50 (Neuromedin-K receptor [4]) [nM] | EC50 [5] [nM] | EC50 [6] [nM] | Stability (Serum [7]) | Stability [8] | Stability (Serum [9]) | metabolised at 24 h (Neprilysin (NEP 24.11)) [%] | Structure (SMILES) | Time [10] [min] | Activity [11] |
| --- | --- | --- | --- | --- | --- | --- | --- | --- | --- | --- | --- | --- | --- | --- |
| 0.51 | 0.014 | > 10000 | > 10000 | 7 | 0.0099 | 0.0094 | 0.152 | Stable | Stable | Stable |  | CSCC[C@H](NC(=O)[C@H](CC(C)C)NC(=O)CNC(=O)[C@H](Cc1ccccc1)N(C)C(=O)[C@H](Cc1ccccc1)NC(=O)[C@@H](CCC(=O)O)NC(=O)C(=O)O)C(N)=O | 50.4 | 2.7 |
| 1.4 | 0.0074 | > 10000 | > 10000 |  | 0.0072 | 0.0093 | 0.15 |  |  |  | > 70 | CSCC[C@H](NC(=O)[C@H](CC(C)C)NC(=O)CNC(=O)[C@H](Cc1ccccc1)N(C)C(=O)[C@H](Cc1ccccc1)NC(=O)[C@H](CCCC(=O)O)NC(=O)C(=O)O)C(N)=O (Oxalyl-[Aad]F[NMeF]GLM-NH2) |  |  |
|  |  |  | > 10000 |  |  | 0.019 | 0.61 | Stable | Stable | Stable |  | CSCC[C@H](NC(=O)[C@H](CC(C)C)NC(=O)CNC(=O)[C@H](Cc1ccccc1)N(C)C(=O)[C@H](Cc1ccccc1)NC(=O)[C@H](CC(=O)O)NC(=O)CCC(=O)O)C(N)=O [SENKTIDE] | 47.2 | 2.6 |
| 0.43 | 0.0091 | > 10000 | > 10000 | 7 | 0.013 | 0.012 | 0.169 | Stable | Stable | Stable | > 70 | CSCC[C@H](NC(=O)[C@H](CC(C)C)NC(=O)CNC(=O)[C@H](Cc1ccccc1)N(C)C(=O)[C@H](Cc1ccccc1)NC(=O)[C@H](CCC(=O)O)NC(=O)C(=O)O)C(N)=O |  |  |
